Structures can show the parent of a compound that is named as a salt.
Tests used:
IRE1a [1] = biological target: T1, IRE1a (Homo sapiens, UniProt O75460); assay: In vitro FRET assay (IRE1a cleavage of XBP1 RNA probe); type: biochemical; parameters: purchased SignalChem; details: 2 nM IRE1a
Experimental: In vitro FRET assay was performed to evaluate the ability of select compounds to inhibit IRE1, the results of which are summarized in Table 3. To perform the in vitro FRET assay, 1× complete assay buffer (CAB; […], 50 mM sodium citrate pH 7.15, 1 mM magnesium acetate, 0.02% tween 20) was used to dilute SignalChem IRE1a protein to a final concentration of 2 nM. Selected compounds were serially diluted with DMSO in a non-binding black 384-well plate for a total of 15 ul in each well, 2 ul of the serially diluted compound or DMSO control were then added to new wells containing 98 ul of 1×CAB, for a total volume of 100 ul, 10 ul of which were then transferred to wells of a new plate, 5 ul of the diluted IRE1a was then added to each well, 5 ul of a […] XBP1 RNA probe was then added to each well. Fluorescence was then read over 30 minutes in kinetic mode (485/515 nm).
Two RNA probes were used, XBP1 wildtype (SEQ ID NO: 2) which is able to be spliced by active IRE1a or XBP1 mutant (SEQ ID NO: 3) which is unable to be spliced. Each probe contained a 5′ 6-FAM modification and a 3′ IOWA Black FQ modification. […]

IRE1a [2] = biological target: T1, IRE1a; assay: IRE1a Endoribonuclease Nanoluciferase Assay in 293T cells; type: cell-based; parameters: endogenous in cells; host or cells: 293T cells; details: XBP1 luciferase reporter in 293T cells, ER stressor
Experimental: Compounds disclosed herein were assessed for disruption of IRE1 signaling using a IRE1a Endoribonuclease Nanoluciferase Assay. Briefly, 2.5×10^6 293T cells were seeded in a 10 cm^2 tissue culture plate. About 24 hours later, the cells were transfected with Effectene. In a 15 mL tube, the following was added: 2 ug XBP1 luciferase reporter plasmid (PGK-Luc2-P2A-XBP1u-Nanoluciferase-PEST); 300 ul EC buffer; and 16 ul Enhancer, followed by incubation at room temp for 5 minutes. Next, 60 ul Effectene (Qiagen 301427) was added, followed by incubation at room temperature for 10 minutes, 2.6 mL cDMEM media was added. Old media was aspirated from the cells, followed by addition of 7 mL fresh media. Full transfection mixture was added dropwise to cells. Cells were incubated for 6 hours, followed by trypsinization, centrifugation and resuspension in 11 mL fresh cDMEM media, 100 uL of cells were plated per a well in a 96 well plate. A day later, ER stressors of choice +/−inhibitors were added. To harvest, media was aspirated from cells completely, then 50 uL 1× passive lysis buffer (Promega: E1941) was added per well and put on shaker (300 rpm) for 30 minutes at room temperature. Cells were centrifuged, and 15 uL sample per well was added to a new, opaque white 384 well plate (Corning 3570), 15 uL OneGlo (nanoluciferase kit, Promega N1630) was added. Plates were spun down, placed on shaker (300 rpm) for 10 minutes. Plates were read on luminometer, 1000 ms integration time per well, 15 uL Stop and Glo (nanoluciferase kit) was added. Plates were spun down, placed on shaker (300 rpm) for 10 minutes. Plates were read on luminometer, 1000 ms second integration time per well. Recordings are provided below in Table 4.

IRE1a/XBP1 pathway = assay: Inhibition of endogenous XBP1 splicing in 293T cells with tunicamycin; type: cell-based, human
Experimental: Gene expression was evaluated by quantitative PCR for XBP1s and total XBP1 transcripts using the 2^(−ΔCT) method for calculating normalized gene expression. Gene expression levels were normalized to ACTB transcripts. XBP1 splicing was calculated as actin-normalized XBP1s expression divided by actin-normalized total XBP1 expression.

[3] = Metabolic assays of N,N-dimethyl compounds; type: in vitro ADME; details: data not shown
[4] = system: IRE1a-dependent XBP1 splicing; assay: Inhibition of IRE1a-dependent XBP1 splicing in ovarian cancer cells in vivo; parameters: species or system mouse; details: mice with metastatic ovarian cancer, single oral dose 45 mg/kg, 24 hours
Experimental: Mice (n=3) with established metastatic ovarian cancer were orally gavaged with 45 mg/kg vehicle control or inhibitor dissolved in H2O. The inhibitor was Compound C. Compound C is 2-chloro-N-(5-(2-(((1r,4r)-4-(dimethylamino)cyclohexyl)amino)-8-ethylquinazolin-6-yl)-6-methylpyridin-2-yl)benzenesulfonamide, Compound 91, described herein. After 24 hours, mice were euthanized, ascites-resident cells were extracted and tumor cells, dendritic cells (DCs), and CD4+ T cells were isolated by FACS. The samples were used for subsequent RT-qPCR analysis of beta-actin, XBP1s and total XBP1. Gene expression was evaluated by quantitative PCR for XBP1s and total XBP1 transcripts using the 2^(−ΔCT) method for calculating normalized gene expression. Gene expression levels were normalized to Actb transcripts. XBP1 splicing is calculated as XBP1s expression divided by total XBP1 expression. A single oral dose of Compound C suppressed IRE1a-dependent XBP1 splicing in tumor cells and relevant immune cells in vivo over 24 hours, FIG. 7.
Mice (n=3) with established metastatic ovarian cancer were orally gavaged with 45 mg/kg vehicle control or inhibitor dissolved in H2O. […] Gene expression was evaluated by quantitative PCR for XBP1s and total XBP1 transcripts using the 2^(−ΔCT) method for calculating normalized gene expression. […] XBP1 splicing is calculated as XBP1s expression divided by total XBP1 expression. […]

[5] = system: IRE1a-mediated XBP1 splicing; assay: Target engagement in pancreas and salivary gland (XBP1 splicing RT-qPCR); type: in vivo, mouse; details: mice, 30 mg/kg oral gavage, 6 hours, compared to control and Compound B
Experimental: Mice (n=3 per group) were orally gavaged with 30 mg/kg vehicle control or IRE1 inhibitors dissolved in H2O. After 6 hours, mice were euthanized and pancreas and salivary gland tissues were isolated, snap frozen on dry ice, and used for subsequent RT-qPCR analysis of beta-actin, XBP1s and total XBP1. Gene expression was evaluated by quantitative PCR for XBP1s and total XBP1 transcripts using the 2^(−ΔCT) method for calculating normalized gene expression. Gene expression levels were normalized to Actb transcripts. XBP1 splicing is calculated as XBP1s expression divided by total XBP1 expression.

in vivo = details: mouse
[6] = Bioavailability assay (pharmacokinetic study); details: mouse; IV 1 mg/kg, PO 10 or 30 mg/kg
MDA-MB-231 tumors = assay: MDA-MB-231 human triple negative breast carcinoma xenograft in athymic nude mice; type: in vivo, mouse; details: MDA-MB-231 xenograft mice, 24 hours after first dose and at endpoint/Day 29
Experimental: Tumor Cell Culture and Implantation: MDA-MB-231 cells were grown to mid-log phase in RPMI 1640 medium containing 10% fetal bovine serum, 2 mM glutamine, 100 units/mL sodium penicillin G, 25 μg/mL gentamicin, and 100 μg/mL streptomycin sulfate. The tumor cells were cultured in tissue culture flasks in a humidified incubator at 37° C., in an atmosphere of 5% CO2 and 95% air. The cells were harvested during exponential growth and resuspended in cold phosphate buffered saline (PBS). Each test animal was injected subcutaneously in the right flank with 5×10^6 MDA-MB-231 cells in a 0.1 mL cell suspension. Tumor growth was monitored as the average tumor size approached the target range of 100 to 150 mm^3. Tumors were measured in two dimensions using calipers, and volume was calculated using the formula:
where w=width and l=length in mm of a MDA-MB-231 tumor. […]
Endpoint and Tumor Growth Inhibition (TGI) Analysis: Tumors were measured using calipers twice a week for the study duration. […] The study ended on Day 29 and data from this day was analyzed to determine the MTV (n), the median tumor volume for the number of animals, n, on the final day (Day 29) for each group. […] Percent tumor growth inhibition (% TGI) was defined as the difference between the MTV of the designated control group (Group 1) and the MTV of the drug-treated group, expressed as a percentage of the MTV of the control; group: […]

T1 sequence (O75460 19-977): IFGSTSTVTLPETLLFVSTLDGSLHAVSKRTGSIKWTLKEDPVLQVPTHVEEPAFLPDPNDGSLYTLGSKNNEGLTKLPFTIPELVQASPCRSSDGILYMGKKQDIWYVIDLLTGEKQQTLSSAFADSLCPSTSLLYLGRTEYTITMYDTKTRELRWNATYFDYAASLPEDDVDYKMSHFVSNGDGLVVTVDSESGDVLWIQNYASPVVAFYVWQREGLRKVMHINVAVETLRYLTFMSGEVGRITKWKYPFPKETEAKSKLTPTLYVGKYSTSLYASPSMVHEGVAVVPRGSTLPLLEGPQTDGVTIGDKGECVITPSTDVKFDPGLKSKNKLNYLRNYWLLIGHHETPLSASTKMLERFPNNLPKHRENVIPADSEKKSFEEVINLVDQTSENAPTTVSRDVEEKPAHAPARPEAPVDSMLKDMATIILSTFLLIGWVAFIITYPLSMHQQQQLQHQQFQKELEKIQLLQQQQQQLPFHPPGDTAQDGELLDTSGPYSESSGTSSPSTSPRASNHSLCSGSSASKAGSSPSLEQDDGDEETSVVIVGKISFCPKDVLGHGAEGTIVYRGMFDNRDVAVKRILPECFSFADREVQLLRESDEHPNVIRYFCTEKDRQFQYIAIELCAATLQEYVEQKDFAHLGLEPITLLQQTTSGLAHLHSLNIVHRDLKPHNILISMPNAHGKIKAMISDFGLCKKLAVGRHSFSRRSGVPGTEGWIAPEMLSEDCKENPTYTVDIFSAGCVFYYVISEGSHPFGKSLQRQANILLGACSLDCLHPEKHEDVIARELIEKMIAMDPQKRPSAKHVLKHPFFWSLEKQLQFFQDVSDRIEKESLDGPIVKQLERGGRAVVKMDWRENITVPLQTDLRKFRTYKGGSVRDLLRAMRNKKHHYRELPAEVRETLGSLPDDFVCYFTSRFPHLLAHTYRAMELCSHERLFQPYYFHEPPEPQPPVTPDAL

SMILES | IC50 (IRE1a [1]) [nM] | EC50 (IRE1a [2]) [nM] | also measured
CCc1cc(-c2ccc(NS(=O)(=O)c3cccc(C)c3Cl)nc2C)cc2cnc(N[C@H]3CC[C@H](N(C)C)CC3)nc12 [160; Formic Acid Salt] | ≤ 5 | ≤ 5 | 
CCc1c(F)c(-c2ccc(NS(=O)(=O)c3ccccc3Cl)nc2C)cc2cnc(N[C@H]3CC[C@H](N(C)C)CC3)nc12 [161; Formic Acid Salt] | ≤ 5 | ≤ 5 | 
CCc1c(F)c(-c2cc(F)c(NS(=O)(=O)c3ccccc3Cl)nc2C)cc2cnc(N[C@H]3CC[C@H](N(C)C)CC3)nc12 [162; Formic Acid Salt] | ≤ 5 | ≤ 5 | 
CCc1c(F)c(-c2cc(F)c(NS(=O)(=O)c3ccccc3Cl)nc2OC)cc2cnc(N[C@H]3CC[C@H](N(C)C)CC3)nc12 [163; Formic Acid Salt] | ≤ 5 | ≤ 5 | 
CCc1cc(-c2ccc(NS(=O)(=O)c3ccccc3Cl)nc2C)cc2cnc(N[C@H]3CC[C@H](N(C)C)CC3)nc12 [Compound 91, 2-chloro-N-(5-(2-(((1r,4r)-4-(dimethylamino)cyclohexyl)amino)-8-ethylquinazolin-6-yl)-6-methylpyridin-2-yl)benzenesulfonamide] |  |  | shift in potency between Compound A and Compound C (XBP1 splicing inhibition) (IRE1a/XBP1 pathway): approximately 3.6 ×; metabolism of N,N-dimethyl compounds [3]: removal of the methyl groups
CCc1cc(-c2ccc(NS(=O)(=O)c3ccccc3Cl)nc2OC)cc2cnc(N[C@H]3CC[C@H](N(C)C)CC3)nc12 [Compound 99, 2-chloro-N-(5-(2-(((1r,4r)-4-(dimethylamino)cyclohexyl)amino)-8-ethylquinazolin-6-yl)-6-methoxypyridin-2-yl)benzenesulfonamide] |  |  | IRE1a-dependent XBP1 splicing in FACS-isolated ascites cells [4]: suppressed; metabolism of N,N-dimethyl compounds [3]: removal of the methyl groups; IRE1a-mediated XBP1 splicing in pancreas and salivary gland [5]: potently suppressed
CCc1cc(-c2ccc(NS(=O)(=O)c3ccccc3Cl)nc2OC)cc2cnc(N[C@H]3CC[C@H](N(C)C)CC3)nc12 [Compound 99] |  |  | bioavailability (in vivo): 70%
CCc1cc(-c2ccc(NS(=O)(=O)c3ccccc3Cl)nc2C)cc2cnc(N[C@H]3CC[C@H](N)CC3)nc12 [Compound A, N-(5-(2-(((1r,4r)-4-aminocyclohexyl)amino)-8-ethylquinazolin-6-yl)-6-methylpyridin-2-yl)-2-chlorobenzenesulfonamide] |  |  | oral bioavailability [6]: 4%
COc1cc2c(C)c(CC(=O)N3CCOCC3)c(=O)oc2c(C=O)c1O [MKC-8866] |  |  | exposure (plasma compound levels) (MDA-MB-231 tumors): significantly higher with multi-dosing

Source: patent US20220265656A1, “COMBINATION THERAPIES WITH IRE1 SMALL MOLECULE INHIBITORS” (Cornell University, priority 2019, published 2022)
